Patent US5488049A, “Method of treating learning and memory disorders using benzothiadiazide derivatives as nootropic agents” (FIDIA - Georgetown Institute for the Neuro-Sciences, priority 1993, dated 1996)
Entries after “also recorded” stand apart in the source; their conditions may differ.

Tests used:
[1] = tested on: AMPA receptors located on CAl pyramidal neuronal membranes; assay: Slow bath perfusion, whole-cell: potentiation of glutamate-elicited current (with MK-801) in CAl pyramidal neurons of hippocampal slices; assay type: cell-based, rat
Method: Young rats (12-16 days old) were decapitated and the brains quickly removed and placed in ice-cold Ringer solution. Thin slices of hippocampus (250 μm) were then cut with a vibratome slicer (Lancer, St. Louis, Mo.) and kept in Ringer solution at 37° C. until use. The experiments were carried out at room temperature with the slice totally submerged in a 1 ml volume recording chamber and under continuous perfusion with Ringer solution at a rate of 6 ml/min using an upright Hoffman modulation contrast microscope (Carl Zeiss, Germany) equipped with a 40×water immersion objective.
Media and drug application. The external Ringer solution contained (in mM): NaCl 120; KCl 3.1; CaCl2 2; MgCl2 1; KH2 PO4 1; NaHCO3 26; glucose 2.7; and it was continuously bubbled with 95% O2 and 5% CO2. Patch pipettes were filled with a solution containing (in mM): K-gluconate 140; MgCl2 1; ATP.Mg 2; EGTA 0.5; HEPES-KOH 10, pH 7.2. All the drugs under investigation were applied through the recording chamber perfusion system via parallel inputs having a common entry into the chamber. Agonist application was attained using two different systems that allowed a slow or a rapid solution change. Slow solution changes were used during recordings in whole-cell configuration and were obtained by exchanging the solution of the recording chamber within a few seconds. Fast solution changes were obtained with the use of the Y-shaped tubing method that allows complete exchange of solution in less than 10 ms, and is described in detail by Murase et al. (1989).
IDRA compounds (see above for structures) were first dissolved in 50 μl of DMSO, then […] of 1N NaOH and water (sufficient to reach a volume of 1 ml and a concentration of 10 mM). The final concentration was reached diluting the stock solution with Ringer solution.
Ionic currents in whole-cell configuration and outside-out excised membrane patches were monitored using the patch clamp technique (15).
The action diazoxide and the IDRA analogues were tested on the desensitization of AMPA receptors located on CAl pyramidal neuronal membranes in rat hippocampal slices. In order to evaluate whether the compounds under study increase the intensity of currents generated by the activation of non-NMDA receptors, these receptors were activated with glutamate in the presence of 5 μM MK-801 to block completely the ionic current elicited by glutamate acting on the NMDA receptor channels present in CAl pyramidal neurons. Three distinct methods of drug application were employed: 1) slow bath perfusion of agonist and drugs while recording in whole-cell mode (onset 30s); ii) fast application to outside-out patches of a fixed concentration of agonist with a double barrel pipette (onset<1 ms) in the presence and the absence of drugs; iii) fast perfusion (onset<6 ms) of increasing concentrations of agonist and drugs applied with the Y-tubing device to outside-out patches excised from neurons in brain slices and to voltage-clamped neurons in primary culture.
. The most efficacious (1 mM) derivative was IDRA21, which elicited a potentiation of 797±220% (n=4 cells), followed by IDRA 20 with a potentiation of 292±100% (n=4 cells) (FIG. 2). […]

rats [2] = assay: Water maze: drug action on learning and retention in rats; assay type: in vivo, rat
Method: Rats (male, 250 g) were trained once a day in maze A (See FIG. 8B forced maze) for 2 consecutive days. The day of the experiment, after a first exposure to maze A, IDRA 21 (15 mg/kg) Aniracetam (500 mg/kg) or vehicle (cont) were administered per oral gavage and 30 min later the animals were exposed once again to Maze A. After 30 min of interatrial rest, rats were exposed to Maze B (see FIG. 8C open maze).
(§1) The water maze apparatus was adapted from Kant et al., (16), and consists of three concentric squares placed inside a 5 ft plastic pool (FIG. 6). The walls of the maze are 50 cm in height and are constructed from black opaque plastic to allow for tracking of the animal with an overhead camera. The alleys between the walls are 16 cm wide. In the center of each wall there is a removable doorway. The opening of doorways allows for the construction of mazes with an increasing number of potential error possibilities. (See diagram for Maze A and Maze B, FIG. 6). The maze is located in a room 10'×15' at constant temperature (18° C.) adjacent to the vivarium. The room is illuminated with overhead lights which also serve as spatial cues. Additional spatial cues are provided by the position of the investigator and a number of small white x's placed within specific locations upon the walls of the maze. The maze is filled with water (18°)C. to a depth of 25 cm.
(§2) Seven days prior to drug studies, rats were tested in Maze A (forced maze) on two consecutive days. Pretesting with the "forced" maze enabled the assessment of the animals' general motor, sensory and motivational abilities, and facilitated the exclusion of those animals unable to meet pretesting criteria. Performance was assessed by determining either swim time, errors committed, or path length measured with a computerized recording device. Errors are defined as whole body entry into alleys not leading directly to the exit platform (i.e., shaded portions in FIG. 6). Rats were excluded from the study if their swim path length and/or number of errors were two standard deviations above the mean […] of the entire group. During the first two trials, the rats were placed into the center of the maze and given a maximum of 180 secs to find the "exit platform" located at the "finish" (FIG. 6). The time required, the number of errors, and the path length were recorded for each trial. […] Rats meeting the criteria were randomly divided into groups. On the day of the experiment, a single trial was run (Maze A) in order to establish a baseline of performance. Following drug administration, the rats were again tested once on Maze A to establish a baseline of post-treatment performance. Following an additional interatrial interval of 30 min., the rats were tested on Maze B.

rats [3] = assay: Water maze: drug action on alprazolam-disrupted learning behavior in rats; assay type: in vivo, rat; conditions: IDRA 21 10 mg/kg os, 30 min pretreatment; alprazolam 1.5 mg/kg i.p.
Method: Rats (male 250 g b.w.) were trained two days, once a day, in maze A (See insert A). […] Rats were exposed to a new maze configuration (Maze B) in 4 successive trials 15, 30, 45, and 60 min after the i.p. injections.
as §1, §2
In these experiments, rats were trained in Maze B 15, 30, 45 and 60 min. after drug injection.

For `CC1Nc2ccc(Cl)cc2S(=O)(=O)N1` (racemic) [IDRA 21, 7-chloro-3-methyl-3,4-dihydro-2H 1,2,4-benzothiadiazine S-S dioxide], the “potentiation of glutamate-elicited current” value ([1]; 10 μM compound, mean±SE, N=4 cells) was 65±6.9%, the “potentiation of glutamate-elicited current” value ([1]; 100 μM compound, mean±SE, N=4 cells) was 109±30% and the “efficacy relative to diazoxide (potentiation of glutamate current)” value ([1]; 1 mM) was 4 fold. The “potentiation of glutamate-elicited current” value ([1]; 1 mM compound, 50 μM glutamate, 5 μM MK-801, whole-cell, slow perfusion) was 797±200%, the “potentiation of glutamate-elicited current” value ([1]; 1 mM compound, 50 μM glutamate, 5 μM MK-801, whole-cell, slow perfusion, listed as IDRA21) was 797±220% and the “maximal efficacy reached, in words” value ([1]; 1 mM, maximal dose testable without vehicle effect) was “failed to reach maximal efficacy at 1 mM”. For the same compound, the “potentiation of glutamate current, dose dependence” value ([1]; up to 1 mM) was “dose-dependent potentiation”, the “efficacy in improving water maze performance of trained rats, vs aniracetam” value (rats [2]; 0.2 μmol icv vs aniracetam 1.8 μmol icv) was “at least as efficacious as aniracetam” and the “performance in water maze (errors and time, Maze B)” value (rats [2]; 15 mg/kg os) was “significantly improves the performance of rats, reducing the number of errors and the time interval in accomplishing the task in Maze B”. For the same compound, the “improvement of water maze performance” value (rats [2]; FIG. 8A, IDRA 21 15 mg/kg, Aniracetam 500 mg/kg oral) was “improve water performance in rats”, the “significance (P) of water maze performance vs control” value (rats [2]; IDRA 21 15 mg/kg, Aniracetam 500 mg/kg per oral gavage, at least 5 rats) was less than 0.05 and the “potency vs aniracetam in potentiating learning and enhancing cognitive performance” value (rats [2]; racemic form, naive rats and rats with alprazolam-disrupted learning) was “at least an order of magnitude more potent than aniracetam”. For the same compound, the “antagonism of alprazolam amnesic effect” value (rats [3]) was “reduces the amnesic effect of alprazolam; also recorded: attenuates the learning disruptive effect of Alprazolam”.
